Measurements from patent US4605615A, “L-glutamic acid oxidase (H2 O2 -generating), its production and analytical method therefor” (priority 1982, dated 1986).
Like-named read-outs stand apart in the source and are kept apart here. One block for each compound: values may come before it.

Legend:
A7700 enzyme [1] = assay: Effect of metal ions on enzyme activity; format: biochemical, Streptomyces sp. A7700; conditions: metalic salt 1.0 mM
Procedure: (§1) The above mixture (3.0 ml) was introduced into a quartz cell at 37° C., to which was immediately added and mixed the enzyme solution (50 μl), in a constant temperature (37° C.) cell-holder of a spectrophotometer. Then the mixture was incubated for exactly 5 minutes after 2 minutes of mixing with the enzyme solution, and the variation of absorption (optical density ΔA545) at 545 nm is measured.
(§2) The activity of the enzyme is calculated by the following equation: [formula] 2. Substrate specificity:
(§3) The effect of metal ions is shown in Table 5, in which ions other than Cu^++ show no effect on the enzymes.

A8063 enzyme [2] = assay: Effect of metal ions on enzyme activity; format: biochemical, Streptomyces sp. A8063; conditions: metalic salt 1.0 mM
Procedure: as §1, §2, §3

A7700 enzyme [3] = assay: Effect of surface active agents and other substances on enzyme activity; format: biochemical, Streptomyces sp. A7700
Procedure: as §1
(§4) The activity of the enzyme is calculated by the following equation: [formula] 2.

A8063 enzyme [4] = assay: as above; format: biochemical, Streptomyces sp. A8063
Procedure: as §1, §4

A7700 enzyme [5] = assay: Substrate specificity: relative activity on various substrates; format: biochemical, Streptomyces sp. A7700
Procedure: as §1, §2
(§5) The relative activities (%) of enzyme L-glutamic acid oxidases produced by Streptomyces sp. A7700 (hereinafter designated as A7700 enzyme) and by Streptomyces sp. A8063 (hereinafter designated as A8063 enzyme), respectively, on various substrates as compared with L-glutamic acid, are measured.

A8063 enzyme [6] = assay: as above; format: biochemical, Streptomyces sp. A8063
Procedure: as §1, §2, §5

A7700 enzyme [7] = conditions: read-out: Km value; A7700 enzyme against L-glutamic acid
A8063 enzyme [8] = conditions: read-out: Km value; A8063 enzyme against L-glutamic acid

Compound: [Ba+2].[Cl-].[Cl-] [BaCl2]
Relative activity (%) (A7700 enzyme [1]): 102.5% | Relative activity (%) (A8063 enzyme [2]): 103.7%

Compound: CCCCCCCCCCCCCCCC[N+](C)(C)C [CTACl]
Relative activity (%) (A7700 enzyme [3]; A7700, additive 0.1%): 98.6% | Relative activity (%) (A8063 enzyme [4]; A8063, additive 0.1%): 94.2%

Compound: [Ca+2].[Cl-].[Cl-] [CaCl2]
Relative activity (%) (A7700 enzyme [1]): 98.8% | Relative activity (%) (A8063 enzyme [2]): 103.0%

Compound: [Cl-].[Cl-].[Co+2] [CoCl2]
Relative activity (%) (A7700 enzyme [1]): 99.4% | Relative activity (%) (A8063 enzyme [2]): 98.0%

Compound: [Cl][Cu][Cl] [CuCl2]
Relative activity (%) (A7700 enzyme [1]): 50.3% | Relative activity (%) (A8063 enzyme [2]): 62.1%

Relative activity (%) on substrate as compared with L-glutamic acid (A7700 enzyme [5]): 0% | Relative activity (%) on substrate as compared with L-glutamic acid (A8063 enzyme [6]): 0%
Compound: N[C@H](CCC(=O)O)C(=O)O [D-glutamic acid]

Compound: O=C(O)CN(CCN(CC(=O)O)CC(=O)O)CC(=O)O [EDTA]
Effect of additive on enzyme activity (in words) (A7700 enzyme [3]): lack of effect | Relative activity (%) (A7700 enzyme [3]): 93.8% | Effect of additive on enzyme activity (in words) (A8063 enzyme [4]): lack of effect | Relative activity (%) (A8063 enzyme [4]): 100.7%

Relative activity (%) (A7700 enzyme [3]; A7700, additive 0.01 mM): 100.7% | Effect of additive on enzyme activity (in words) (A7700 enzyme [3]; A7700 enzyme): not affected | Relative activity (%) (A8063 enzyme [4]; A8063, additive 0.01 mM): 100.7% | Effect of additive on enzyme activity (in words) (A8063 enzyme [4]; A8063 enzyme): not affected
Compound: Cc1cc2nc3c(=O)[nH]c(=O)nc-3n(C[C@H](O)[C@H](O)[C@H](O)COP(=O)(O)OP(=O)(O)OC[C@H]3O[C@@H](n4cnc5c(N)ncnc54)[C@H](O)[C@@H]3O)c2cc1C [FAD]

Relative activity (%) (A7700 enzyme [3]; A7700, additive 0.01 mM): 88.9% | Effect of additive on enzyme activity (in words) (A7700 enzyme [3]; A7700 enzyme): not affected | Relative activity (%) (A8063 enzyme [4]; A8063, additive 0.01 mM): 97.1% | Effect of additive on enzyme activity (in words) (A8063 enzyme [4]; A8063 enzyme): not affected
Compound: Cc1cc2nc3c(=O)[nH]c(=O)nc-3n(C[C@H](O)[C@H](O)[C@H](O)COP(=O)(O)O)c2cc1C [FMN]

Compound: [Cl][Fe]([Cl])[Cl] [FeCl3]
Relative activity (%) (A7700 enzyme [1]): 109.2% | Relative activity (%) (A8063 enzyme [2]): 103.0%

Relative activity (%) on substrate as compared with L-glutamic acid (A7700 enzyme [5]): 0% | Relative activity (%) on substrate as compared with L-glutamic acid (A8063 enzyme [6]): 0%
Compound: C[C@H](N)C(=O)O [L-alanine]

Compound: N=C(N)NCCC[C@H](N)C(=O)O [L-arginine]
Relative activity (%) on substrate as compared with L-glutamic acid (A7700 enzyme [5]): 0% | Relative activity (%) on substrate as compared with L-glutamic acid (A8063 enzyme [6]): 0%

Activity of enzyme on substrate (in words) (A7700 enzyme [5]): specific activity | Relative activity (%) on substrate as compared with L-glutamic acid (A7700 enzyme [5]): 100% | Activity of enzyme on substrate (in words) (A8063 enzyme [6]): specific activity | Relative activity (%) on substrate as compared with L-glutamic acid (A8063 enzyme [6]): 100% | Km (A7700 enzyme [7]): ~560 µM | Km (A8063 enzyme [8]): ~1100 µM
Compound: N[C@@H](CCC(=O)O)C(=O)O [L-glutamic acid]

Relative activity (%) on substrate as compared with L-glutamic acid (A7700 enzyme [5]): 0% | Relative activity (%) on substrate as compared with L-glutamic acid (A8063 enzyme [6]): 0%
Compound: N[C@@H](Cc1c[nH]cn1)C(=O)O [L-histidine]

Relative activity (%) on substrate as compared with L-glutamic acid (A7700 enzyme [5]): 0% | Relative activity (%) on substrate as compared with L-glutamic acid (A8063 enzyme [6]): 0%
Compound: CC[C@H](C)[C@H](N)C(=O)O [L-isoleucine]

Compound: NCCCC[C@H](N)C(=O)O [L-lysine]
Relative activity (%) on substrate as compared with L-glutamic acid (A7700 enzyme [5]): 0% | Relative activity (%) on substrate as compared with L-glutamic acid (A8063 enzyme [6]): 0%

Relative activity (%) on substrate as compared with L-glutamic acid (A7700 enzyme [5]): 0% | Relative activity (%) on substrate as compared with L-glutamic acid (A8063 enzyme [6]): 0%
Compound: CSCC[C@H](N)C(=O)O [L-methionine]

Relative activity (%) on substrate as compared with L-glutamic acid (A7700 enzyme [5]): 0% | Relative activity (%) on substrate as compared with L-glutamic acid (A8063 enzyme [6]): 0%
Compound: N[C@@H](Cc1ccccc1)C(=O)O [L-phenylalanine]

Relative activity (%) on substrate as compared with L-glutamic acid (A7700 enzyme [5]): 0% | Relative activity (%) on substrate as compared with L-glutamic acid (A8063 enzyme [6]): 0%
Compound: N[C@@H](CO)C(=O)O [L-serine]

Relative activity (%) on substrate as compared with L-glutamic acid (A7700 enzyme [5]): 0% | Relative activity (%) on substrate as compared with L-glutamic acid (A8063 enzyme [6]): 0%
Compound: C[C@@H](O)[C@H](N)C(=O)O [L-threonine]

Compound: N[C@@H](Cc1ccc(O)cc1)C(=O)O [L-tyrosine]
Relative activity (%) on substrate as compared with L-glutamic acid (A7700 enzyme [5]): 0% | Relative activity (%) on substrate as compared with L-glutamic acid (A8063 enzyme [6]): 0%

Relative activity (%) on substrate as compared with L-glutamic acid (A7700 enzyme [5]): 0% | Relative activity (%) on substrate as compared with L-glutamic acid (A8063 enzyme [6]): 0%
Compound: CC(C)[C@H](N)C(=O)O [L-valine]

Compound: [Cl-].[Cl-].[Mg+2] [MgCl2]
Relative activity (%) (A7700 enzyme [1]): 102.5% | Relative activity (%) (A8063 enzyme [2]): 103.4%

Compound: [Cl][Mn][Cl] [MnCl2]
Relative activity (%) (A7700 enzyme [1]): 108.6% | Relative activity (%) (A8063 enzyme [2]): 105.7%

Compound: [N-]=[N+]=[N-].[Na+] [NaN3]
Relative activity (%) (A7700 enzyme [3]; A7700, additive 10 mM): 101.4% | Effect of additive on enzyme activity (in words) (A7700 enzyme [3]; A7700 enzyme): not inhibited | Relative activity (%) (A8063 enzyme [4]; A8063, additive 10 mM): 102.6% | Effect of additive on enzyme activity (in words) (A8063 enzyme [4]; A8063 enzyme): not inhibited

Compound: [Cl][Ni][Cl] [NiCl2]
Relative activity (%) (A7700 enzyme [1]): 101.8% | Relative activity (%) (A8063 enzyme [2]): 102.3%

Compound: O=C(O)c1cc[c]([Hg][Cl])cc1 [PCMB]
Relative activity (%) (A7700 enzyme [3]; A7700, additive 0.002%): 107.6% | Relative activity (%) (A8063 enzyme [4]; A8063, additive 0.002%): 98.2%

Compound: CCCCCCCCCCCCOS(=O)(=O)O [SDS]
Relative activity (%) (A7700 enzyme [3]; A7700, additive 0.1%): 106.3% | Relative activity (%) (A8063 enzyme [4]; A8063, additive 0.1%): 93.1%

Compound: [Cl-].[Cl-].[Zn+2] [ZnCl2]
Relative activity (%) (A7700 enzyme [1]): 106.1% | Relative activity (%) (A8063 enzyme [2]): 110.7%

Relative activity (%) on substrate as compared with L-glutamic acid (A7700 enzyme [5]): 0% | Relative activity (%) on substrate as compared with L-glutamic acid (A8063 enzyme [6]): 0%
Compound: NCc1ccccc1 [benzylamine]

Relative activity (%) on substrate as compared with L-glutamic acid (A7700 enzyme [5]): 0% | Relative activity (%) on substrate as compared with L-glutamic acid (A8063 enzyme [6]): 0%
Compound: CCCCN [butylamine]

Compound: CCN [ethylamine]
Relative activity (%) on substrate as compared with L-glutamic acid (A7700 enzyme [5]): 0% | Relative activity (%) on substrate as compared with L-glutamic acid (A8063 enzyme [6]): 0%

Compound: NO [hydroxylamine]
Relative activity (%) on substrate as compared with L-glutamic acid (A7700 enzyme [5]): 0% | Relative activity (%) on substrate as compared with L-glutamic acid (A8063 enzyme [6]): 0%

Compound: CN [methylamine]
Relative activity (%) on substrate as compared with L-glutamic acid (A7700 enzyme [5]): 0% | Relative activity (%) on substrate as compared with L-glutamic acid (A8063 enzyme [6]): 0%

Relative activity (%) on substrate as compared with L-glutamic acid (A7700 enzyme [5]): 0% | Relative activity (%) on substrate as compared with L-glutamic acid (A8063 enzyme [6]): 0%
Compound: CCCN [propylamine]

Compound: C[C@H](CCC(=O)O)[C@H]1CC[C@H]2[C@@H]3[C@H](O)C[C@@H]4C[C@H](O)CC[C@]4(C)[C@H]3C[C@H](O)[C@]12C [sodium cholate]
Relative activity (%) (A7700 enzyme [3]; A7700, additive 0.1%): 104.2% | Relative activity (%) (A8063 enzyme [4]; A8063, additive 0.1%): 100.0%

Relative activity (%) on substrate as compared with L-glutamic acid (A7700 enzyme [5]): 0% | Relative activity (%) on substrate as compared with L-glutamic acid (A8063 enzyme [6]): 0%
Compound: NCCc1ccc(O)cc1 [tyramine]
